From patent US20090233910A1, “Npy antagonists, preparation and uses” (CEREP, priority 2005, published 2009)
Marks after values point to notes of the source that are not given here.

Columns and labels:
NPY Y1 receptor [1] = target: T1, NPY Y1 receptor (Homo sapiens, UniProt P25929); assay: Binding test to the NPY Y1 receptor ([125I]-PYY, SK-N-MC cell suspension); conditions: SK-N-MC cells, 25 pM [125I]-PYY
T1 construct: host or cells: SK-N-MC cells (whole-cell suspension)
T1 sequence (P25929 1-384): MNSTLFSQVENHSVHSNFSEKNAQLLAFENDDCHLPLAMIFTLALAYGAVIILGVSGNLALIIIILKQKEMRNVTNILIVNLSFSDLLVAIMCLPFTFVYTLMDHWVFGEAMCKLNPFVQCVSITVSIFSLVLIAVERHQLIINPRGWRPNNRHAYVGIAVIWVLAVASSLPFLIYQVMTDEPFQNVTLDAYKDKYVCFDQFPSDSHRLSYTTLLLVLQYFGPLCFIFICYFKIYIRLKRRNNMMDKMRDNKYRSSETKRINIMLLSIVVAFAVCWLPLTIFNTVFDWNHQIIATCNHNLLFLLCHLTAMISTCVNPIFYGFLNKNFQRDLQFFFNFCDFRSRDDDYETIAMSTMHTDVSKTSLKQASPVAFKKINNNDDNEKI
Procedure: The SK-N-MC cells (ATCC HBT10) are cultured at 37° C. in MEM medium (minimum essential medium) free of phenol red (Invitrogen ref. 04194565M) containing 10% foetal calf serum (Invitrogen ref. 10270-106), 1% non-essential aminoacids (Invitrogen ref. 11140-035), 1% sodium pyruvate (Invitrogen ref. 11360-039), 1% glutamine (Invitrogen ref. 25030-032), 100 IU/ml of penicillin and 100 μg/ml of streptomycin (Invitrogen ref. 15140-122) in a humid atmosphere containing 5% CO2.
After aspirating the culture medium, the cells are washed with a phosphate buffer pH 7.4 (Invitrogen ref. 14190-094), then lifted with a Versene solution (Invitrogen, ref 15040-033). The cells are centrifuged at 500×g for 10 minutes at 4° C. then resuspended in a freeze buffer pH 7.4 containing 50 mM HEPES (N-2-hydroxyethylpiperazine-N′-2-ethanesulfonic acid), 145 mM sodium chloride, 2.6 mM calcium chloride, 1 mM magnesium chloride, 10 mM glucose, and 1 mg/ml bovine albumin. The cell suspension is aliquoted into twenty million cells per milliliter of buffer and stored at −70° C.
The cell suspension is incubated 2 hours at 37° C. in an incubation buffer pH 7.4 containing 50 mM HEPES, 2.5 mM calcium chloride, 1 mM magnesium chloride, 0.025% sodium azide, 1 mg/ml bovine albumin and 25 pM [^125I]-PYY (Perkin Elmer, NEX341). The reaction is halted by filtering through a GF/B filter pre-treated with 0.3% PEI, and washed three times with 1 ml of 50 mM TRIS buffer [tris(hydroxymethyl)aminomethane]/HCl, pH 7.4. The radioactivity deposited on the filter is measured by liquid scintillation count (TopCount, Packard). Non-specific binding is determined in the presence of 1 μM NPY (Bachem, H3322). Results are expressed as IC50 values in nM calculated by non-linear regression with 4 parameters.

NPY Y1 receptor [2] = target: T1, NPY Y1 receptor; assay: cAMP measurement test in SK-N-MC cells (shift of NPY dose-effect curves, forskoline-stimulated); format: cell-based; conditions: Schild analysis vs NPY, read-out: pA2 Y1 (converted)
Procedure: The SK-N-MC cells are cultured in 96-well plates. After aspirating the culture medium, the cells are washed with a phosphate buffer pH 7.4 (Invitrogen ref. 14190-094), then lifted with a Versene solution (Invitrogen, ref 15040-033). The cells are centrifuged at 500×g for 10 minutes at 4° C. They are resuspended in a stimulation buffer containing isobutyl-methyl-xanthine in sufficient concentration to inhibit the phosphodiesterases (Flashplate kit, Perkin Elmer). The tested compounds are added 10 minutes before depositing the NPY (Bachem, H3322) in variable concentration, then the 300 nM forskoline (Sigma, F6886). The cells are in cubated 1 hour at ambient temperature to allow cAMP production whose levels are measured using the Flashplate method after 2 hours incubation with the cAMP tracer [^125I]. The results are expressed in pA2 form observing the displacement of NPY dose-effect curves in the absence and presence of increasing concentrations of test compound [Schild, 1949, pAx and competitive drug antagonism, Br. J. Pharmacol., 4, 277-280].

fasting mice = assay: Food intake by fasting mice; format: in vivo; conditions: fasting male OF1 mice, 30 mg/kg ip
Procedure: The day before the experiment at 16 h, male OF1 mice (Charles River, France) with body weight varying between 20 and 25 g, are left to fast in individual cages with unlimited drink water. On the day of the experiment, at 9 h30±15 min, a control batch of 10 mice was given the solvent (5% DMSO, Merck, 1.02931.1000, 5% cremophor EL, Sigma C-5135, physiological saline solution to complete to volume) via intra peritoneal route or per os in a volume of 10 ml/kg, and the other batches of 10 mice were given the products to be tested dissolved in the solvent (10 or 30 mg/kg in a volume of 10 ml/kg ip ou po). Individual feed troughs filled with food (A04, UAR, France) were weighed then placed in the cages, exactly 30 min or 60.min after treating the mice ip or per os, respectively. The feed troughs were then weighed 1 h, 2 h, 3 h, 4 h and when applicable 6 h and 24 h after placing the feed troughs in the cages. Food consumptions are expressed in grams, as a mean±standard error (S.E.M). (n=10). Statistical analysis used ANOVA followed by Dunnett's multiple comparison test. The level of significance is obtained for p<0.05.

| SMILES | IC50 (NPY Y1 receptor [1]) [nM] | Kb (NPY Y1 receptor [2]) [nM] | Accumulated inhibition of food intake after ip administering of 30 mg/kg, 0-1 h (fasting mice; 0-1 h) [%*] | Accumulated inhibition of food intake after ip administering of 30 mg/kg, 0-2 h (fasting mice; 0-2 h) [%] | Accumulated inhibition of food intake after ip administering of 30 mg/kg, 0-3 h (fasting mice; 0-3 h) [%**] | Accumulated inhibition of food intake after ip administering of 30 mg/kg, 0-4 h (fasting mice; 0-4 h) [%*] |
| --- | --- | --- | --- | --- | --- | --- |
| CCC(CC)NC(=O)Nc1ccc(Oc2cnc(NC(=O)c3ccc(OC4CCN(C(C)C)CC4)cc3)s2)c(OC)c1 [Example 2, N-(5-{4-[3-(1-Ethyl-propyl)-ureido]-2-methoxy-phenoxy}-thiazol-2-yl)-4-(1-isopropyl-piperidin-4-yloxy)-benzamide] | 15 | 10 |  |  |  |  |
| CCOc1cc(NC(=O)NC(CC)CC)ccc1Oc1ccc(NC(=O)c2ccc(O[C@H]3C[C@H]4CC[C@@H](C3)N4C)cc2)cc1 [Example 40, N-(4-{2-Ethoxy-4-[3-(1-ethyl-propyl)-ureido]-phenoxy}-phenyl)-4-(8-methyl-8-aza-bicyclo[3.2.1]oct-(3-endo)-yloxy)-benzamide] | 1.7 | 2.24 |  |  |  |  |
| CCCCN1CCC(Oc2ccc(C(=O)Nc3ccc(Oc4cc(F)c(NC(=O)NC(CC)CC)cc4OC)cc3)cc2C)CC1 [Example 312, 4-(1-Butyl-piperidin-4-yloxy)-N-(4-{4-[3-(1-ethyl-propyl)-ureido]-5-fluoro-2-methoxy-phenoxy}-phenyl)-3-methyl-benzamide] |  |  | 42 | 21 | 33 | 27 |
